pIC50: −log10 of the molar value.

Chain of human PD-L1 / Human PD-1 (Q9NZQ7 19-239): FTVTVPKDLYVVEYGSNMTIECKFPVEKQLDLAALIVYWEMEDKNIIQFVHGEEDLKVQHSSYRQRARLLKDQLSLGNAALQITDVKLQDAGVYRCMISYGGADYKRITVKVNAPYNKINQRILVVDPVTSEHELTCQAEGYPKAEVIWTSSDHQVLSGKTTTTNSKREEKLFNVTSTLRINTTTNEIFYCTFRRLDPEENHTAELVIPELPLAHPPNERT

This test deals with human PD-L1 / Human PD-1 (Homo sapiens (Human), UniProt Q9NZQ7). Kind of test: Enzyme-Linked Immunosorbent Assay (ELISA), PD-1/PD-L1 binding. As to conditions: plates coated with human PD-L1, biotinylated human PD-1 added. How it is done:
96 Well plates were coated with 1 μg/mL of human PD-L1 (obtained from R&D) in PBS overnight at 4′° C. The wells were then blocked with 2% BSA in PBS (W/V) with 0.05% TWEEN-20 for 1 hour at 37′° C. The plates were washed 3 times with PBS/0.05% TWEEN-20 and the compounds were serial diluted (1:5) in dilution medium and added to the ELISA plates. Human PD-1 and biotin 0.3 μg/mL (ACRO Biosystems) were added and incubated for 1 hour at 37° C. then washed 3 times with PBS/0.05% TWEEN-20. A second block was performed with 2% BSA in PBS (WNV)/0.05% TWEEN-20 for 10 min at 37° C. and the plates were washed 3 times with PBS/0.05% TWEEN-20. Streptavidin-HIRP was added for 1 hour at 37° C. then the plates were washed 3 times with PBS/0.05% TWEEN-20. TMB substrate was added and reacted for 20 min at 37° C. A stop solution (2 N aqueous H2SO4) was added. The absorbance was read at 450 nm using a micro-plate spectrophotometer.
Background: In an ELISA, binding on a coated surface is turned into a signal by an enzyme label.
The term pIC50 denotes the IC50 on a negative log10 scale, so that one unit is a factor of ten. The low end stands for a large IC50, the high end for a small IC50. The compound `COc1cc(-c2cccc(-c3cccc(-c4cc(F)c(CN)c(OC)c4)c3C)c2C)ccc1CC(=O)O` [Compd 1.001] showed a pIC50 of 5.00 to 6.00.
For `COc1cc(-c2cccc(-c3cccc(NC4CCNCC4)c3C)c2C)cc(F)c1CN` [Compd 1.003, N-(4″-(aminomethyl)-3″-fluoro-5″-methoxy-2,2′-dimethyl-[1,1′:3′,1″-terphenyl]-3-yl)piperidin-4-amine] the value was above 6.00; for `COc1cc(-c2cccc(-c3cccc(-c4cc(F)c(CN)c(OC)c4)c3C)c2C)ccc1C(=O)O` [Compd 1.005], 5.00 to 6.00; for `COc1cc(-c2cccc(-c3cccc(-n4ccnc4)c3C)c2C)cc(F)c1CN1CC(C(=O)O)C1` [Compd 1.006], 5.00 to 6.00.
Then `COc1cc(-c2cccc(-c3ccc4c(c3)OC(C3=NCCN3)CO4)c2C)cc(F)c1CN` (centres unmarked) [Compd 1.009], with 5.00 to 6.00; and `COc1cc(-c2cccc(-c3cccc(OC4CCCNC4)c3C)c2C)cc(F)c1CN` (centres unmarked) [Compd 1.014], with 5.00 to 6.00; and `COC(=O)C1=Cc2cc(-c3cccc(-c4cc(F)c(CN)c(OC)c4)c3C)ccc2OC1` [Compd 1.016, Methyl 6-(4′-(aminomethyl)-3′-fluoro-5′-methoxy-2-methyl-[1,1′-biphenyl]-3-yl)-2H-chromene-3-carboxylate], with above 6.00.
Then `COc1cc(-c2cccc(-c3ccc4c(c3C)CNCC4)c2C)cc(F)c1CNCCO` [Compd 1.020], with 5.00 to 6.00.
`COc1cc(-c2cccc(-c3cc(F)c(CN)c(OC)c3)c2C)ccc1F` [Compd 1.021] showed a pIC50 of 5.00 to 6.00.
Then `COc1cc(-c2cccc(-c3cccc4c3CCNC4)c2C)cc(F)c1CN` [Compd 1.022], with 5.00 to 6.00.
Then `COc1cc(-c2cccc(-c3cccc(CCN)c3C)c2C)cc(F)c1CN` [Compd 1.023], with 5.00 to 6.00; and `COc1ccc(-c2cccc(-c3cc(F)c(CN)c(OC)c3)c2C)cc1F` [Compd 1.025], with 5.00 to 6.00; and `COc1ccc(-c2cccc(-c3cc(F)c(CN)c(OC)c3)c2C)c(F)c1` [Compd 1.030], with 5.00 to 6.00.
With `COc1cc(-c2cccc(-c3cccc(-c4cc(F)c(CNCCO)c(OC)c4)c3C)c2C)cc(F)c1CN` [Compd 1.035], the pIC50 was above 6.00.
For `COc1cc(-c2cccc(-c3cccc(-c4cc(F)c(CN)c(OC)c4)c3C)c2C)ccc1CN` [Compd 1.036] the value was above 6.00; for `COc1cc(-c2cccc(-c3cccc(-c4ccc(CN)c(F)c4)c3C)c2C)cc(F)c1CN` [Compd 1.037], above 6.00.
Turning to `COc1cc(-c2cccc(-c3cccc(-c4cc(F)c(CCN)c(OC)c4)c3C)c2C)cc(F)c1CN` [Compd 1.039], the pIC50 is above 6.00.
Then `COc1cc(-c2cccc(-c3cccc(-c4ccc5c(c4)CCNC5)c3C)c2C)cc(F)c1CNCCO` [Compd 1.040, 2-(((3-fluoro-5-methoxy-2′,2″-dimethyl-3″-(1,2,3,4-tetrahydroisoquinolin-6-yl)-[1,1′:3′,1″-terphenyl]-4-yl)methyl)amino)ethan-1-ol], with above 6.00; and `COc1cc(-c2cccc(-c3cccc(-c4cc(F)c(CNCCS(=O)(=O)O)c(OC)c4)c3C)c2C)cc(F)c1CNCCS(=O)(=O)O` [Compd 1.041, 2,2′-(((3,3′″-difluoro-5,5′″-dimethoxy-2′,2″-dimethyl-[1,1′:3′,1″:3″,1′″-quaterphenyl]-4,4′″-diyl)bis(methylene))bis(azanediyl))bis(ethane-1-sulfonic Acid)], with above 6.00.
In the case of `Cc1c(-c2ccc3c(c2)CCNC3)cccc1-c1cccc(-c2ccc3c(c2)CCNC3)c1C` [Compd 1.042], the pIC50 is above 6.00.
As for `COc1cc(-c2cccc(-c3cccc(-c4cc(F)c(CN5CCC(O)CC5)c(OC)c4)c3C)c2C)cc(F)c1CN1CCC(O)CC1` [Compd 1.043, 1,1′-((3,3′″-difluoro-5,5′″-dimethoxy-2′,2″-dimethyl-[1,1′:3′,1″:3″,1′″-quaterphenyl]-4,4′″-diyl)bis(methylene))bis(piperidin-4-ol)], the pIC50 is above 6.00.
Turning to `COc1cc(-c2cccc(-c3cccc(-c4cc(F)c(CCN)c(OC)c4)c3C)c2C)cc(F)c1CCN` [Compd 1.045], the pIC50 is above 6.00.
Turning to `COc1cc(-c2cccc(-c3cccc(-c4cc(F)c(CN[C@@H]5CCC[C@@H]5O)c(OC)c4)c3C)c2C)cc(F)c1CN[C@@H]1CCC[C@@H]1O` [Compd 1.046], the pIC50 was above 6.00.
For `COc1cc(-c2cccc(-c3cccc(-c4cc(F)c(CN(C)C[C@@H]5CCC(=O)N5)c(OC)c4)c3C)c2C)cc(F)c1CN(C)C[C@@H]1CCC(=O)N1` [Compd 1.047], the pIC50 was above 6.00.
Then `COc1cc(-c2cccc(-c3cccc(-c4cc(F)c(CNC(C)C)c(OC)c4)c3C)c2C)cc(F)c1CNC(C)C` [Compd 1.048], with above 6.00; and `COc1cc(-c2cccc(-c3cccc(-c4cc(F)c(CNCCCCO)c(OC)c4)c3C)c2C)cc(F)c1CNCCCCO` [Compd 1.049], with above 6.00; and `COc1cc(-c2cccc(-c3cccc(-c4cc(F)c(CN(C)C)c(OC)c4)c3C)c2C)cc(F)c1CNCCO` [Compd 1.050, 2-(((4′″-((dimethylamino)methyl)-3,3′″-difluoro-5,5′″-dimethoxy-2′,2″-dimethyl-[1,1′:3′,1″:3″,1′″-quaterphenyl]-4-yl)methyl)amino)ethan-1-ol], with above 6.00.
For `COc1cc(-c2cccc(-c3cccc(-c4cc(F)c(CNCCO)c(OC)c4)c3C)c2C)cc(F)c1CNCCO` [Compd 1.051, 2,2′-(((3,3′″-difluoro-5,5′″-dimethoxy-2′,2″-dimethyl-[1,1′:3′,1″:3″,1′″-quaterphenyl]-4,4′″-diyl)bis(methylene))bis(azanediyl))bis(ethan-1-ol)] the value was above 6.00; for `CNCc1c(F)cc(-c2cccc(-c3cccc(-c4cc(F)c(CNC)c(OC)c4)c3C)c2C)cc1OC` [Compd 1.053], above 6.00; for `COc1cc(-c2cccc(-c3cccc(-c4cc(F)c(CNCCCCC(=O)O)c(OC)c4)c3C)c2C)cc(F)c1CNCCCCC(=O)O` [Compd 1.054], above 6.00.
Then `COc1cc(-c2cccc(-c3cccc(-c4cc(F)c(CNCCC(=O)O)c(OC)c4)c3C)c2C)cc(F)c1CNCCC(=O)O` [Compd 1.055], with above 6.00; and `COc1cc(-c2cccc(-c3cccc(-c4cc(F)c(CNCCCO)c(OC)c4)c3C)c2C)cc(F)c1CNCCCO` [Compd 1.056], with above 6.00.
The compound `COC(=O)CCCN(C)Cc1c(F)cc(-c2cccc(-c3cccc(-c4cc(F)c(CN(C)CCCC(=O)OC)c(OC)c4)c3C)c2C)cc1OC` [Compd 1.057] had a pIC50 above 6.00.
For `COc1cc(-c2cccc(-c3cccc(-c4cc(F)c(CN(C)CCCC(=O)O)c(OC)c4)c3C)c2C)cc(F)c1CN(C)CCCC(=O)O` [Compd 1.058] the value was above 6.00; for `COc1cc(-c2cccc(-c3cccc(-c4cc(F)c(CN(C)C)c(OC)c4)c3C)c2C)cc(F)c1CN(C)C` [Compd 1.059], above 6.00; for `COc1cc(-c2cccc(-c3cccc(OCCCN4[C@H](C)CC[C@H]4C)c3C)c2C)cc2c1CNCC2` [Compd 1.060], above 6.00.
In turn, `Cc1c(OCCCN2[C@H](C)CC[C@H]2C)cccc1-c1cccc(-c2cc(F)c(CNCCCC(=O)O)c(F)c2)c1C` [Compd 1.061] gave a pIC50 above 6.00.
For `COc1cc(-c2cccc(-c3cccc(-c4cc(F)c(CNCC(=O)O)c(OC)c4)c3C)c2C)cc(F)c1CNCC(=O)O` [Compd 1.062] the value was above 6.00.
